Results on 18 compounds are retold here after US20100113445A1, “Chemical Compounds” (SMITHKLINE BEECHAM CORPORATION, priority 2007, published 2010).

Counter-ions that a name gives are not always drawn.

For this assay, the target named is T1, Wee1 (Homo sapiens, UniProt P30291).
T1 construct: endogenous in cells; host or cells: HeLa cells
T1 sequence (P30291 whole entry): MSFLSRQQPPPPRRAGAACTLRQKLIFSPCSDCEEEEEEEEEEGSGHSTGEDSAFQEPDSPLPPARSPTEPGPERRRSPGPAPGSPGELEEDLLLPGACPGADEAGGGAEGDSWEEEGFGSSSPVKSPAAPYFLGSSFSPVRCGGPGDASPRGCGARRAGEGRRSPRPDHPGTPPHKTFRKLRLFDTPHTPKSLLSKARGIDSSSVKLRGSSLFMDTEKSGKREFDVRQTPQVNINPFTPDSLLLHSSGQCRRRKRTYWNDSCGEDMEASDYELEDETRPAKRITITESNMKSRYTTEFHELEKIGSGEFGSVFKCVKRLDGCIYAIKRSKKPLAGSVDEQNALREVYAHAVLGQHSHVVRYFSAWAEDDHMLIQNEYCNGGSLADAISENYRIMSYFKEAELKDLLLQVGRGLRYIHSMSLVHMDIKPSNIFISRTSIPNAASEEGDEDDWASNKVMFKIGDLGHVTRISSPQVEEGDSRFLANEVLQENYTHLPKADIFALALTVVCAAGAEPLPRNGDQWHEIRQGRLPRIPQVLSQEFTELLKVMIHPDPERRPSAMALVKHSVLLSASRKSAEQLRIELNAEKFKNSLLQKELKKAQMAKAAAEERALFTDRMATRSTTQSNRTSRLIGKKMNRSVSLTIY
Put plainly: Cell assay for Wee1 inhibitory activity (cell-based ELISA of cdc2 phosphorylation). Conditions: aphidicolin-synchronized Hela cells in G2-M; phospho-cdc2(Tyr15) sandwich ELISA; read-out: pIC50, cell assay for Wee1 inhibitory activity (converted). The text has this: Cell Assay for Wee1 Inhibitory Activity
Wee1 inhibitory activity can be measured using a cell-based ELISA assay.
Hela cells are synchronized using aphidicolin, which blocks the entry of cells into S-phase. Cells in G2-M transition phase are then obtained by releasing the cells from aphidicolin treatment for approximately 7-9 hrs. The phosphorylation level of the Wee1 target cdc2 may then be measured by sandwich ELISA using an anti-cdc2 antibody and an anti-phospho-cdc2(Tyr15) antibody. This cell assay was used to calculate a pIC50 for the compounds described in Examples 3, 4, 6-8, 10-12, 15, 17, 18, 21, 23, 25-27, 33, 35, 39, 43, 44, 51, 63, and 99.
Background: ELISA stands for enzyme-linked immunosorbent assay.
With `CCN(CC)CCOc1ccc(Nc2ncc(-c3cn[nH]c3)c(Nc3ccccc3OC)n2)cc1` [Example 3, N^2-(4-{[2-(diethylamino)ethyl]oxy}phenyl)-N^4-[2-(methyloxy)phenyl]-5-(1H-pyrazol-4-yl)-2,4-pyrimidinediamine], the IC50 is no more than 10 µM.

On to `CCN(CC)CCOc1ccc(Nc2ncc(-c3ccc4[nH]ncc4c3)c(Nc3ccccc3OC)n2)cc1` [Example 4, N^2-(4-[{2-(diethylamino)ethyl]oxy}phenyl)-5-(1H-indazol-5-yl)-N^4-[2-(methyloxy)phenyl]-2,4-pyrimidinediamine], for which the IC50 was no more than 10 µM.

Turning to `CCN(CC)CCOc1ccc(Nc2ncc(-c3cncc(OC)c3)c(Nc3ccccc3OC)n2)cc1` [Example 6, N^2-(4-{[2-(diethylamino)ethyl]oxy}phenyl)-N^4-[2-(methyloxy)phenyl]-5-[5-(methyloxy)-3-pyridinyl]-2,4-pyrimidinediamine], the IC50 was no more than 10 µM.

As to `CCN(CC)CCOc1ccc(Nc2ncc(-c3ccc(O)cc3)c(Nc3ccccc3OC)n2)cc1` [Example 7], the IC50 is no more than 10 µM.

For the compound `CCN(CC)CCOc1ccc(Nc2ncc(-c3cncnc3)c(Nc3ccccc3OC)n2)cc1` [Example 8, N^2-(4-{[2-(diethylamino)ethyl]oxy}phenyl)-N^4-[2-(methyloxy)phenyl]-5,5′-bipyrimidine-2,4-diamine], the IC50 was no more than 10 µM.

`CCN(CC)CCOc1ccc(Nc2ncc(-c3cnc4ccccc4c3)c(Nc3ccccc3OC)n2)cc1` [Example 10, N^2-(4-{[2-(diethylamino)ethyl]oxy}phenyl)-N^4-[2-(methyloxy)phenyl]-5-(3-quinolinyl)-2,4-pyrimidinediamine]: the IC50 was no more than 10 µM.

Take `CCN(CC)CCOc1ccc(Nc2ncc(-c3ccccc3Cl)c(Nc3ccccc3OC)n2)cc1` [Example 11, 5-(2-chlorophenyl)-N^2-(4-{[2-(diethylamino)ethyl]oxy}phenyl)-N^4-[2-(methyloxy)phenyl]-2,4-pyrimidinediamine]: the IC50 is no more than 10 µM.

On to `CCN(CC)CCOc1ccc(Nc2ncc(-c3cnn(Cc4ccccc4)c3)c(Nc3ccccc3OC)n2)cc1` [Example 12, N^2-(4-{[2-(diethylamino)ethyl]oxy}phenyl)-N^4-[2-(methyloxy)phenyl]-5-[1-(phenylmethyl)-1H-pyrazol-4-yl]-2,4-pyrimidinediamine], for which the IC50 is no more than 10 µM.

As for `CCN(CC)CCOc1ccc(Nc2ncc(-c3cccc(CO)c3)c(Nc3ccccc3OC)n2)cc1` [Example 21, [3-(2-[(4-{[2-(diethylamino)ethyl]oxy}phenyl)amino]-4-{[2-(methyloxy)phenyl]amino}-5-pyrimidinyl)phenyl]methanol], the IC50 is no more than 10 µM.

As to `CCC(C)NC(=O)c1ccccc1Nc1nc(Nc2ccc(Cn3cncn3)cc2)ncc1-c1cn[nH]c1` (stereo not drawn) [Example 25, N-(1-methylpropyl)-2-[(5-(1H-pyrazol-4-yl)-2-{[4-(1H-1,2,4-triazol-1-ylmethyl)phenyl]amino}-4-pyrimidinyl)amino]benzamide], the IC50 is no more than 10 µM.

With `Fc1cccc(CCNc2nc(Nc3ccc(Cn4cncn4)cc3)ncc2-c2cncnc2)c1` [Example 26, N^4-[2-(3-fluorophenyl)ethyl]-N^2-[4-(1H-1,2,4-triazol-1-ylmethyl)phenyl]-5,5′-bipyrimidine-2,4-diamine], the IC50 was no more than 10 µM.

Turning to `COc1ccccc1Nc1nc(Nc2ccc(Cn3cncn3)cc2)ncc1-c1cncnc1` [Example 33, N^4-[2-(methyloxy)phenyl]-N^2-[4-(1H-1,2,4-triazol-1-ylmethyl)phenyl]-5,5′-bipyrimidine-2,4-diamine], the IC50 was no more than 10 µM.

`CCN(CC)CCOc1ccc(Nc2ncc(-c3cccc(N)c3)c(Nc3ccccc3OC)n2)cc1` [Example 35, 5-(3-aminophenyl)-N^2-(4-{[2-(diethylamino)ethyl]oxy}phenyl)-N^4-[2-(methyloxy)phenyl]-2,4-pyrimidinediamine]: the IC50 was no more than 10 µM.

Take `CCN(CC)CCOC(=O)Nc1ccc(Nc2ncc(-c3cncnc3)c(Nc3ccccc3OC)n2)cc1` [Example 43, 2-(diethylamino)ethyl {4-[(4-{[2-(methyloxy)phenyl]amino}-5,5′-bipyrimidin-2-yl)amino]phenyl}carbamate]: the IC50 was no more than 10 µM.

Take `CCN(CC)CCOc1ccc(Nc2ncc(-c3cncnc3)c(Nc3cccc(C#N)c3)n2)cc1` [Example 44, 3-({2-[(4-{[2-(diethylamino)ethyl]oxy}phenyl)amino]-5,5′-bipyrimidin-4-yl}amino)benzonitrile]: the IC50 was no more than 10 µM.

In the case of `Cc1ncc(-c2cccc(Nc3nc(Nc4ccc(Cn5cncn5)cc4)ncc3-c3cncnc3)c2)s1` [Example 51, N^4-[3-(2-methyl-1,3-thiazol-5-yl)phenyl]-N^2-[4-(1H-1,2,4-triazol-1-ylmethyl)phenyl]-5,5′-bipyrimidine-2,4-diamine], the IC50 is no more than 10 µM.

For the compound `CCN(CC)CCOc1ccc(Nc2ncc(-c3cccc(C(N)=O)c3)c(Nc3ccccc3OC)n2)cc1` [Example 63, 3-(2-[(4-{[2-(diethylamino)ethyl]oxy}phenyl)amino]-4-{[2-(methyloxy)phenyl]amino}-5-pyrimidinyl)benzamide], the IC50 was no more than 10 µM.

With `COc1ccccc1Nc1nc(Nc2cccc(OCCN(C)C)c2)ncc1-c1cn[nH]c1` [Example 99, N^2-(3-{[2-(dimethylamino)ethyl]oxy}phenyl)-N^4-[2-(methyloxy)phenyl]-5-(1H-pyrazol-4-yl)-2,4-pyrimidinediamine hydrochloride], the IC50 was no more than 10 µM.
